Reference: the supplement of paper PMC10307832

Assays:
Test in all cases: relative viability (nuclei count vs DMSO), 5 days (fraction); higher = more cells survive
Carfilzomib + Decitabine = compound: CC(C)C[C@H](NC(=O)[C@H](CCc1ccccc1)NC(=O)CN1CCOCC1)C(=O)N[C@@H](Cc1ccccc1)C(=O)N[C@@H](CC(C)C)C(=O)[C@@]1(C)CO1 [Carfilzomib] + Nc1ncn([C@H]2C[C@H](O)[C@@H](CO)O2)c(=O)n1 [Decitabine] (partner 2 µM)
In short: (§1)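 Lung cancer cell lines were seeded in 1536-well plates and dosed by pin tool the next day, with either a single drug or a fixed anchor-drug dose combined with five library-drug doses (not always all listed) spaced in √10 steps. Five days later, one step fixed the cells and stained their nuclei (final 0.05% Triton X-100, 1% formaldehyde, 1 ug/ml Hoechst), and nuclei were counted on 4× images. Relative viability is the nuclei count in treated wells divided by the count in vehicle wells, and each value is the median of duplicate plates.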

Carfilzomib + Linsitinib = compound: CC(C)C[C@H](NC(=O)[C@H](CCc1ccccc1)NC(=O)CN1CCOCC1)C(=O)N[C@@H](Cc1ccccc1)C(=O)N[C@@H](CC(C)C)C(=O)[C@@]1(C)CO1 [Carfilzomib] + C[C@]1(O)C[C@@H](c2nc(-c3ccc4ccc(-c5ccccc5)nc4c3)c3c(N)nccn32)C1 [Linsitinib] (partner 1 µM)
In short: as §1

Olaparib + Navitoclax = compound: O=C(c1cc(Cc2n[nH]c(=O)c3ccccc23)ccc1F)N1CCN(C(=O)C2CC2)CC1 [Olaparib] + CC1(C)CCC(c2ccc(Cl)cc2)=C(CN2CCN(c3ccc(C(=O)NS(=O)(=O)c4ccc(N[C@H](CCN5CCOCC5)CSc5ccccc5)c(S(=O)(=O)C(F)(F)F)c4)cc3)CC2)C1 [Navitoclax] (partner 0.5 µM)
In short: as §1

Olaparib + Vorinostat = compound: O=C(c1cc(Cc2n[nH]c(=O)c3ccccc23)ccc1F)N1CCN(C(=O)C2CC2)CC1 [Olaparib] + O=C(CCCCCCC(=O)Nc1ccccc1)NO [Vorinostat] (partner 1 µM)
In short: as §1

Cell Line | relative viability (Carfilzomib + Decitabine; first compound 0.001 µM) | relative viability (Carfilzomib + Decitabine; first compound 0.003162 µM) | relative viability (Carfilzomib + Decitabine; first compound 0.01 µM) | relative viability (Carfilzomib + Decitabine; first compound 0.03162 µM) | relative viability (Carfilzomib + Decitabine; first compound 0.1 µM) | relative viability (Carfilzomib + Linsitinib; first compound 0.001 µM) | relative viability (Carfilzomib + Linsitinib; first compound 0.003162 µM) | relative viability (Carfilzomib + Linsitinib; first compound 0.01 µM) | relative viability (Carfilzomib + Linsitinib; first compound 0.03162 µM) | relative viability (Carfilzomib + Linsitinib; first compound 0.1 µM) | relative viability (Olaparib + Navitoclax; first compound 0.08 µM) | relative viability (Olaparib + Navitoclax; first compound 0.253 µM) | relative viability (Olaparib + Navitoclax; first compound 2.53 µM) | relative viability (Olaparib + Navitoclax; first compound 8 µM) | relative viability (Olaparib + Vorinostat; first compound 0.08 µM) | relative viability (Olaparib + Vorinostat; first compound 0.253 µM) | relative viability (Olaparib + Vorinostat; first compound 2.53 µM) | relative viability (Olaparib + Vorinostat; first compound 8 µM)
HCC-827 | 0.287 | 0.371 | 0.31 | 0.269 | 0.133 | 0.941 | 0.979 | 1.05 | 0.848 | 0.406 | 0.979 | 0.933 | 0.978 | 0.855 | 0.818 | 0.723 | 0.893 | 0.766
HOP-62 | 0.25 | 0.207 | 0.249 | 0.182 | 0.0817 | 0.991 | 0.992 | 0.924 | 0.133 | 0.0627 | 1.22 | 0.929 | 1.06 | 0.823 | 0.757 | 0.575 | 0.675 | 0.379
IA-LM | – | – | – | – | – | 0.58 | 0.687 | 0.836 | 0.0717 | 0.0278 | 0.825 | 0.784 | 0.707 | 0.502 | 1.15 | 0.921 | 0.9 | 0.817
LC-2-ad | 0.878 | 0.811 | 0.75 | 0.861 | 0.557 | 0.879 | 0.907 | 0.907 | 0.462 | 0.151 | 0.529 | 0.431 | 0.365 | 0.316 | 0.749 | 0.604 | 0.66 | 0.495
LCLC-97TM1 | 0.234 | 0.283 | 0.226 | 0.115 | 0.0656 | 0.205 | 0.178 | 0.207 | 0.119 | 0.127 | 0.528 | 0.259 | 0.346 | 0.405 | 1.08 | 0.63 | 0.615 | 0.599
LCLC-103H | 0.722 | 0.732 | 0.793 | 0.728 | 0.387 | 0.951 | 0.882 | 1.06 | 1.11 | 0.296 | – | – | – | – | 0.936 | 0.762 | 0.801 | 0.678
LK-2 | 0.276 | 0.369 | 0.193 | 0.119 | 0.108 | 0.815 | 0.837 | 0.497 | 0.18 | 0.177 | 0.887 | 0.696 | 0.876 | 0.951 | 0.391 | 0.341 | 0.345 | 0.268
LOU-NH91 | 0.823 | 0.864 | 0.852 | 0.413 | 0.389 | 1.01 | 1.14 | 0.67 | 0.334 | 0.298 | 0.757 | 0.642 | 0.725 | 0.618 | 1.17 | 0.904 | 0.939 | 0.983
LU99A | 0.952 | 1.13 | 0.961 | 0.821 | 0.317 | 0.547 | 0.514 | 0.508 | 0.225 | 0.159 | 0.775 | 0.635 | 0.547 | 0.289 | 0.463 | 0.397 | 0.353 | 0.23
NCI-H358 | 0.208 | 0.24 | 0.181 | 0.0811 | 0.0784 | 0.793 | 0.977 | 0.717 | 0.15 | 0.16 | – | – | – | – | 0.697 | 0.613 | 0.634 | 0.551
NCI-H522 | 0.582 | 0.631 | 0.615 | 0.584 | 0.353 | – | – | – | – | – | – | – | – | – | 1.04 | 0.812 | 0.797 | 0.758
NCI-H650 | 0.342 | 0.314 | 0.316 | 0.31 | 0.139 | 0.389 | 1.19 | 0.958 | 0.27 | 0.176 | – | – | – | – | 0.431 | 0.37 | 0.377 | 0.238
NCI-H661 | 0.583 | 0.585 | 0.568 | 0.598 | 0.394 | 0.501 | 0.851 | 0.552 | 0.424 | 0.171 | – | – | – | – | 0.885 | 0.715 | 0.692 | 0.551
NCI-H1299 | – | – | – | – | – | 1.02 | 1.05 | 0.971 | 0.239 | 0.106 | 1.07 | 0.995 | 1.04 | 0.944 | – | – | – | –
NCI-H1563 | – | – | – | – | – | 1.19 | 1.26 | 1.25 | 1.2 | 0.586 | – | – | – | – | – | – | – | –
NCI-H1648 | 0.447 | 0.495 | 0.474 | 0.404 | 0.255 | – | – | – | – | – | – | – | – | – | 0.392 | 0.477 | – | 0.37
NCI-H1650 | 0.42 | 0.522 | 0.359 | 0.148 | 0.177 | – | – | – | – | – | 1.7 | 1.1 | 1.24 | 1.11 | 0.531 | 0.522 | 0.671 | 0.476
NCI-H1703 | – | – | – | – | – | 0.91 | 1.22 | 0.44 | 0.132 | 0.0996 | 1.29 | 1.06 | 1.05 | 1.43 | – | – | – | –
NCI-H1792 | – | 0.592 | 0.619 | 0.542 | 0.207 | 0.492 | 0.632 | 0.365 | 0.633 | 0.339 | 0.666 | 0.555 | 0.505 | 0.512 | – | – | – | –
NCI-H2170 | 0.451 | 0.474 | 0.448 | 0.477 | 0.22 | – | – | – | – | – | 0.551 | 0.533 | 0.53 | 0.448 | 0.811 | 0.754 | 0.748 | 0.748
NCI-H2228 | – | – | – | – | – | 0.592 | 1.04 | 0.524 | 0.156 | 0.103 | 1.14 | 0.809 | 0.707 | 0.587 | 0.587 | 0.541 | 0.742 | 0.449
NCI-H2342 | 0.711 | 0.78 | 0.782 | 0.887 | 0.585 | – | – | – | – | – | – | – | – | – | 0.771 | 0.699 | 0.66 | 0.653
SW 900 | – | 0.5 | 0.344 | 0.197 | 0.22 | – | – | – | – | – | – | – | – | – | 0.462 | 0.446 | 0.443 | 0.515
